{
  "source": "patent US11931351B2",
  "about": "“(S)-3-[1-methylpyrrolidin-2-yl]pyridine, analogues thereof, precursors thereof, or its derivatives, for the use as a pharmaceutical in form of a parenteral administration and a process for the preparation of an injectable substance” (priority 2019, dated 2024)",
  "key": {"H1N1 virus": {"tested_on": "H1N1 virus", "details": "0,002 mg/kg each 24 hours; 24 hours after treatment; versus control group"}, "[1]": {"details": "after 72 h treatment, n=10 per group; compared to antimicrobians/antimycotics (group B) and no treatment (group C)"}, "[2]": {"tested_on": "human PBLs (leukocytes of peripheral blood)", "details": "MTT, 48 hours", "protocol": "(§1) Thereby, cell viability was determined on the basis of the mitochondria-dependent reduction of MTT (3-[4,5-dimethyltiazol 2yl]-2,5-diphenyltetrazolium bromide) to formazan. […] Next cells were treated with 20 μl of MTT. After 3 hours of incubation at 37° C., the formazan blue formed in the cells was dissolved in 100 μl of SDS (sodium dodecylsulfate) for 3 hours in 37° C. The optical density was measured at 570 nm.\n(§2) After the cytotoxicity tests LC50 (LC50-lethal concentration, 50%-dose required to kill half of the cells after a specified test duration) were estimated for each cell lines and PBLs (leukocytes of peripheral blood). Additionally for PBLs LC10 and LC5 were calculated.\n(§3) On the basis of the results of MTT assay for human leukocytes the LC50, LC10 and LC5 were evaluated."}, "WI-38 cells [3]": {"tested_on": "WI-38 cells", "details": "WI-38, 96 hours incubation, MTT"}, "A549 cells [4]": {"tested_on": "A549 cells", "details": "A549, 96 hours incubation, MTT"}, "HS-683 cells [5]": {"tested_on": "HS-683 cells", "details": "HS-683, 96 hours incubation, MTT"}, "IL-6 production": {"tested_on": "IL-6 production", "details": "human PBLs; 1 mg/ml, 500 μg/ml, 300 μg/ml"}, "WI-38 cells [6]": {"tested_on": "WI-38 cells", "assay": "cells", "details": "Homo sapiens, WI-38, 96 h, read-out: concentration that inhibits 50% of the proliferation"}, "A549 cells [7]": {"tested_on": "A549 cells", "assay": "cells", "details": "Homo sapiens, A549, 96 h, read-out: concentration that inhibits 50% of the proliferation"}, "HS-683 cells [8]": {"tested_on": "HS-683 cells", "assay": "cells", "details": "Homo sapiens, Hs 683, 96 h, read-out: concentration that inhibits 50% of the proliferation"}, "WI-38, A549 and HS 683": {"tested_on": "WI-38, A549 and HS 683", "assay": "cells", "details": "Homo sapiens, read-out: doses that inhibit 50% of cell proliferation (summary)"}, "in vitro [9]": {"assay": "in vitro", "details": "human, WI-38 cells (normal embryonic lung diploid cell line)", "protocol": "(§4) In a further example cytotoxicity tests were performed with three different cell lines (FIG. 2a, 2b, 2c): • WI-38 (human diploid cell line from normal embryonic lung tissue) • A549 (human lung adenocarcinoma epithelial cell line) and • HS683 (human neuronal glioma cell line).\nas §1\n(§5) After the cytotoxicity tests LC50 (LC50-lethal concentration, 50%-dose required to kill half of the cells after a specified test duration) were estimated for each cell lines and PBLs (leukocytes of peripheral blood)."}, "in vitro [10]": {"assay": "in vitro", "details": "human, A549 cells (lung adenocarcinoma epithelial cell line)", "protocol": "as §4, §1, §5"}, "in vitro [11]": {"assay": "in vitro", "details": "human, HS683 cells (neuronal glioma cell line)", "protocol": "as §4, §1, §5"}, "in vitro [12]": {"assay": "in vitro", "details": "human, peripheral blood leukocytes (PBLs)", "protocol": "as §1, §2, §3"}, "[13]": {"details": "background statement; cited from earlier work"}, "[14]": {"details": "background statement; cited from earlier work", "remark": "listed apart in the source"}},
  "data": [
    {"smiles": "CN1CCC[C@H]1c1cccnc1", "note": "[(S)-3-[1-Methylpyrrolidin-2-yl]pyridine]", "values": [
      {"measurement": "egg production of H1N1 infected chicken", "setting": "H1N1 virus", "value": "began to lay off eggs"},
      {"measurement": "healing effect on ulcer", "setting": "[1]", "value": "increased healing effect"},
      {"measurement": "LC5", "setting": "[2]", "value": 0.5, "unit": "mg/mL"},
      {"measurement": "LC10", "setting": "[2]", "value": 1000, "unit": "µg/mL"},
      {"measurement": "concentration that inhibits 99% of the proliferation", "setting": "WI-38 cells [3]", "value": 4.5, "unit": "mg/mL"},
      {"measurement": "concentration that inhibits 99% of the proliferation", "setting": "A549 cells [4]", "value": 5.5, "unit": "mg/mL"},
      {"measurement": "concentration that inhibits 99% of the proliferation", "setting": "HS-683 cells [5]", "value": 5.5, "unit": "mg/mL"},
      {"measurement": "effect on IL-6 production", "setting": "IL-6 production", "value": "no effect"},
      {"measurement": "IC50", "setting": "WI-38 cells [6]", "value": 1000, "unit": "µg/mL"},
      {"measurement": "IC50", "setting": "A549 cells [7]", "value": 2000, "unit": "µg/mL"},
      {"measurement": "IC50", "setting": "HS-683 cells [8]", "value": 2900, "unit": "µg/mL"},
      {"measurement": "IC50", "setting": "WI-38, A549 and HS 683", "value": "> 1000", "unit": "µg/mL"},
      {"measurement": "CC50 at 48 h", "setting": "in vitro [9]", "value": 3000, "unit": "µg/mL"},
      {"measurement": "CC50 at 48 h", "setting": "in vitro [10]", "value": 4500, "unit": "µg/mL"},
      {"measurement": "CC50 at 48 h", "setting": "in vitro [11]", "value": 3500, "unit": "µg/mL"},
      {"measurement": "CC50 at 48 h", "setting": "in vitro [12]", "value": 7000, "unit": "µg/mL"},
      {"measurement": "half-life in the body", "setting": "[13]", "value": "approximately two"},
      {"measurement": "miscibility with water", "setting": "[14]", "value": "miscible with water"},
      {"measurement": "solubility in alcohol, ether or light petroleum", "setting": "[14]", "value": "readily soluble"}
    ]}
  ]
}
